This is an account of results in patent US7041785B1, “B1-bradykinin receptor antagonists and use thereof” (Université de Sherbrooke, priority 1996, dated 2006).

Non-standard residues stand in square brackets, D forms with d. Residues, ends and D or L forms follow the SMILES beside them. No end group written: not given here. d2Nal = N[C@H](Cc1ccc2ccccc2c1)C(=O)O

One data set has as its target T1, human B2 receptor (Homo sapiens, UniProt P30411).
T1 construct: Helical strips of HUV were prepared according to Gobeil et al; from tissue; host or cells: human umbilical vein helical strips
T1 sequence (P30411 1-391): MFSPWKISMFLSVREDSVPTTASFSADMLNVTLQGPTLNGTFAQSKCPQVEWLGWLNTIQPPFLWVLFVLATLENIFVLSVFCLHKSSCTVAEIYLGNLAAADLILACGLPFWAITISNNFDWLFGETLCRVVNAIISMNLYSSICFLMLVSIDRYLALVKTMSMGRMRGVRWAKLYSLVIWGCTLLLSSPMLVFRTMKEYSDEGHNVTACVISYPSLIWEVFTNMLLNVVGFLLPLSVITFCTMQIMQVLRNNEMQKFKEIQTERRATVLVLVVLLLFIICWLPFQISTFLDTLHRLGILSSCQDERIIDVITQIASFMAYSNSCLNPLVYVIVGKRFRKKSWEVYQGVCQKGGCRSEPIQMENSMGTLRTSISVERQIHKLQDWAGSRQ
As to the kind of experiment: Human umbilical vein bioassay in presence of Lys(Leu8)desArg9BK, B2 receptor. It is filed as cell-based. The settings on record: vs BK, Lys(Leu8)desArg9BK 1 μmol/L present. The source says: (§1) Tissues were taken from New Zealand white rabbits (1.5–2.5 kg) and Dunken Hartley guinea pigs (250–350 g) of either sex, killed by stunning and exsanguination. Umbilical cords were taken from healthy women 22–40 years old after spontaneous delivery at term. The rabbit jugular vein (RbJV), the guinea pig ileum (GPI), two preparations containing B2 receptors, the rabbit aorta (RbA) (B1 receptor) and the human umbilical vein (HUV), a mixed preparation containing both B1 and B2 receptors^10, were used. Helical strips of RbJV treated with 1 μmol/L of captopril to avoid peptide degradation by the angiotensin-converting enzyme (ACE), alias kininase II were prepared according to Gaudreau et al.^11 Helical strips of RbA devoid of endothelium were prepared according to Furchgott and Bhadrakom^12. Longitudinal segments of GPI were prepared with the procedure described by Rang^13. Helical strips of HUV were prepared according to Gobeil et al.^10. The tissues were suspended in 10-ml organ baths containing warm (37EC), oxygenated (95% O2–5% CO2) Krebs solution of the following composition in mmol/L; NaCl: 118.1; KCl: 4.7; CaCl26H2O: 2.5; KH2PO4: 1.2; MgSO47H2O: 1.18; NaHCO3: 25.0 and D-Glucose: 5.5. The RbA and the HUV were stretched with an initial tension of 2 g, whereas the RbJV and the GPI were loaded with 0.5 g. Changes of tension produced by the various agents were measured with Grass isometric transducers (model FT 03C, Grass Instrument Co., Quincy, Mass.). […] Before testing the drugs, the tissues were allowed to equilibrate for 60–120 min during which time the tissues were repeatedly washed and the tension readjusted every 15 min.
(§2) At the beginning of each experiment, a submaximal dose of bradykinin (BK) (9 nmol/L), was applied repeatedly on the RbJV, the GPI or the HUV to ensure that tissues responded with stable contractions. […] A similar protocol was used for the HUV.
(§3) Repeated applications of a singl and double concentration of BK (on RbJV, GPI and HUV) and of desArg^9BK (RbA and HUV) were made in the absence and in presence of the various peptides to evaluate their apparent affinities as antagonists, in terms of pA2 (-log10 of the molar concentration of antagonist that reduces the effect of a double concentration of agonist to that of a single one)^14. The antagonists were applied 10 min before measuring the myotropic effects of either BK (the B2 receptor agonist) or desArg^9BK (the B1 receptor agonist). […] All kinin antagonists were initially applied to tissues at concentration of 10 μg/mL to measure their potential agonistic activities (α^E) in comparison with BK (in the B2 receptor preparations) or desArg^9BK (in the B1 receptor preparations).

The next data set concerns the target T2, B1 receptor (Oryctolagus cuniculus, UniProt P48748).
T2 sequence (P48748 1-352): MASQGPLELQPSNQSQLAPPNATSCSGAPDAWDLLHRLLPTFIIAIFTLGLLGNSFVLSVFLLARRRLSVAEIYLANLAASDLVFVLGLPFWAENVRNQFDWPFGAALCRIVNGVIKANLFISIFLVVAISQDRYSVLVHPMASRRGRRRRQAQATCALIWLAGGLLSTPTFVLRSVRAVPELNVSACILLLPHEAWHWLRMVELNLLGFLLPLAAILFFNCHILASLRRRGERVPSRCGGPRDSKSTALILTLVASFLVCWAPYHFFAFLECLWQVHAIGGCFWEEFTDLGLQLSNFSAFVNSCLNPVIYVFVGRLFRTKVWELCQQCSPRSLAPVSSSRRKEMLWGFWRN
As to the kind of experiment: cell-based. The settings on record: for Rb.A. α^E: residual agonistic activity at 10 μg/mL in comparison with desArg9BK.
Description: as §1, §2, §3

Data set [1] has as its target T3, B2 receptor (Oryctolagus cuniculus, UniProt Q28642).
T3 sequence (Q28642 1-367): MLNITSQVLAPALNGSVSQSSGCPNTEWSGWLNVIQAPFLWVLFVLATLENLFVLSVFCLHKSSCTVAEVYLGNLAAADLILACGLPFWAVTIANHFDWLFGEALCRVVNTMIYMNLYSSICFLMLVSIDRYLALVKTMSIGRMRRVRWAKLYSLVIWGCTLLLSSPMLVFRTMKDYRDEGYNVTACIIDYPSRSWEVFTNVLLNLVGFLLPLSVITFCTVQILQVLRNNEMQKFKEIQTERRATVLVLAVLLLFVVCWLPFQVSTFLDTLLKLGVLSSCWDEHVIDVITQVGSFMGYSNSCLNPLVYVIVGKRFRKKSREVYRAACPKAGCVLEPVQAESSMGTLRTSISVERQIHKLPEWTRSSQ
The data set is described as follows: cell-based. The settings on record: residual agonistic activity at 10 μg/mL in comparison with BK.
Description: as §1, §2, §3

The target of another data set is T4, human B1 receptor (Homo sapiens, UniProt P46663).
T4 sequence (P46663 1-353): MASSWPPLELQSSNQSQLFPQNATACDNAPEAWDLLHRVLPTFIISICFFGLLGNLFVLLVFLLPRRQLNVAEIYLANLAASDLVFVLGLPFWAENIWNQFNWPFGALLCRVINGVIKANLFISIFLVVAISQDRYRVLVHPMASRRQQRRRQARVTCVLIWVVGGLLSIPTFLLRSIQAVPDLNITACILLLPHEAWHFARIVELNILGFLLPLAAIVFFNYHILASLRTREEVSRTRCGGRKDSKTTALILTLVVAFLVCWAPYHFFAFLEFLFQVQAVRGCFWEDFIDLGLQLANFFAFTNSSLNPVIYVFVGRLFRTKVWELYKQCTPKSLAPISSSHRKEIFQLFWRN
The data set is described as follows: cell-based. The note with it: for Human umbilical vein B1 receptor α^E: residual agonistic activity at 10 μg/mL.
Description: as §1, §2, §3

Data set [2] concerns the target T5, B2 receptor (Cavia porcellus, UniProt O70526).
T5 sequence (O70526 1-372): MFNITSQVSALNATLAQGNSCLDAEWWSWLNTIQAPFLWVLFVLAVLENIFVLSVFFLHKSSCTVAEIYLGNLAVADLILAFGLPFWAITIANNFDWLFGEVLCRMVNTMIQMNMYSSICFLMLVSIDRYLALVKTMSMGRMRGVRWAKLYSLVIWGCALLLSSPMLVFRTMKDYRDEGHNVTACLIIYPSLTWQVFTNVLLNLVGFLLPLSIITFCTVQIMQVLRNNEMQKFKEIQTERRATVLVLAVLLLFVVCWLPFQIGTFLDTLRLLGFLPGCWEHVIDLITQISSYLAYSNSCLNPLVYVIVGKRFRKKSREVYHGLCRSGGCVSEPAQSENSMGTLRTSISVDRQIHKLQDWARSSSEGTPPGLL
As to the kind of experiment: cell-based.
Description: as §1, §2, §3

The target in data set [3] is T3, B2 receptor. The note with it: vs BK; captopril 1 μmol/L; Inactive = no detectable antagonistic effect at ≦ 10 μg/ml.
For data set [4], the target named is T6, angiotensin-converting enzyme (ACE) from rabbit lungs (Oryctolagus cuniculus, UniProt P12822).
T6 sequence (P12822 34-1310): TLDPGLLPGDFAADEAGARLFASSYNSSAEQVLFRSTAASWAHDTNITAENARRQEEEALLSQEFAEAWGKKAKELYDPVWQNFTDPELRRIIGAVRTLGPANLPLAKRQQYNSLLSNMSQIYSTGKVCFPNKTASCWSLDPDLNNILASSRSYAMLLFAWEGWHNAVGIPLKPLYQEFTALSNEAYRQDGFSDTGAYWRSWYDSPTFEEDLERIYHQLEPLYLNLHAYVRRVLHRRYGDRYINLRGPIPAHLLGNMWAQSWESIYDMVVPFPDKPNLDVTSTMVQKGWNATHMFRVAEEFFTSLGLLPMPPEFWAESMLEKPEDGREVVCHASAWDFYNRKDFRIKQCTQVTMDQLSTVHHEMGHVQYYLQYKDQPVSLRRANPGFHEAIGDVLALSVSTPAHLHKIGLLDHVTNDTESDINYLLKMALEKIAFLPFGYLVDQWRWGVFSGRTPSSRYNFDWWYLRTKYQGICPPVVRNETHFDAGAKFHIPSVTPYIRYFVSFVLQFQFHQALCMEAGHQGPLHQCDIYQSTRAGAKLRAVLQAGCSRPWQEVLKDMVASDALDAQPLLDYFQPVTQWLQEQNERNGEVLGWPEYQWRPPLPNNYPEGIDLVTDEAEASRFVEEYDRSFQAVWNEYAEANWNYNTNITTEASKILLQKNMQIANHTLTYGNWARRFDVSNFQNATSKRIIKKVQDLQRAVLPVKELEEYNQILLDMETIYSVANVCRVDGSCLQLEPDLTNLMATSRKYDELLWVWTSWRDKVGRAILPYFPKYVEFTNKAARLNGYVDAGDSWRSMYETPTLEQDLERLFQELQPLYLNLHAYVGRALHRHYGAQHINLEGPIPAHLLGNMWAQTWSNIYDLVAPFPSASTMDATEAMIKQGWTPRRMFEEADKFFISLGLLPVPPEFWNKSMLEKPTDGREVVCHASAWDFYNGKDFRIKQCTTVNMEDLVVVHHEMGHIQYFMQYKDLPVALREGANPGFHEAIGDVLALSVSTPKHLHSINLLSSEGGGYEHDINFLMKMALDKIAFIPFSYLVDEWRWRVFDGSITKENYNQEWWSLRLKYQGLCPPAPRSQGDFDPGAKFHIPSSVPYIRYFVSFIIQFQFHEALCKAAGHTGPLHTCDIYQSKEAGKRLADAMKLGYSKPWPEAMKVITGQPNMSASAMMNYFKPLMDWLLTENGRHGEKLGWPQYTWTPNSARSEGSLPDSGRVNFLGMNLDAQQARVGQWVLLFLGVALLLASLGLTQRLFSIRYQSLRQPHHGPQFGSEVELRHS
The note with it: after 30 min, same conditions and enzymatic dilution; cited from earlier work.

As for `CC[C@H](C)[C@H](NC(=O)[C@@H](Cc1ccc2ccccc2c1)NC(=O)[C@H](CO)NC(=O)[C@H](Cc1ccccc1)NC(=O)CNC(=O)[C@@H]1CCCN1C(=O)[C@@H]1CCCN1C(=O)[C@H](CCCNC(=N)N)NC(=O)[C@H](CCCCN)NC(C)=O)C(=O)O` [Compound 19, AcLys(D-βNal^7, Ile^8)desArg^9BK] (Ac-KRPPGFS[d2Nal]I-OH; C-terminus assumed), the “Human umbilical vein B2 receptor pA2” value on human B2 receptor is “Inactive”. For the same compound, the “Rb.A. α^E” value at B1 receptor is on record as 0. In addition, the “Rb.J.V. α^E” value on B2 receptor [1] was 0.09. Moreover, the “Human umbilical vein B1 receptor α^E” value at human B1 receptor amounted to 0. Besides, the “G.P.I. pA2” value at B2 receptor [2] (vs BK, Inactive = no detectable antagonistic effect at ≦ 10 μg/ml, F.ag. full agonist, P.ag. partial agonist) is on record as “P.ag”. Further, at B2 receptor [3], the “Rb.J.V. pA2” value is reported as “Inactive”.

On to “D-Arg(Hyp^3, D-Hyp^7(trans thiophenyl), Oic^8)desArg^9BK [Compound 34, reference compound]”, for which the “Human umbilical vein B2 receptor pA2” value at human B2 receptor is given as 5.12 ± 0.20. Also, the “Rb.A. pA2” value at B1 receptor (apparent affinity as antagonist vs desArg9BK, antagonist applied 10 min before, Inactive = no detectable antagonistic effect at ≦ 10 μg/ml) worked out at 8.27 ± 0.14. Besides, the “Rb.A. α^E” value at B1 receptor came to 0. The “Rb.J.V. α^E” value at B2 receptor [1] was 0. The “Human umbilical vein B1 receptor α^E” value on human B1 receptor is listed as 0. The “Human umbilical vein B1 receptor pA2” value at human B1 receptor (vs desArg9BK, HOE140 400 nmol/L present) is 8.55 ± 0.09. For the same compound, on B2 receptor [2] (residual agonistic activity at 10 μg/mL in comparison with BK), the “G.P.I. α^E” value is 0. Further, the “Rb.J.V. pA2” value on B2 receptor [3] stood at 7.52 ± 0.05.

As for RPPGFSPFR [BK], the “Metabolism of naturally-occurring kinins by ACE” value in data set [4] is given as “fully metabolised”.
